Values quoted from earlier work in US7585978B2, “Processes of manufacturing substituted-1,4-dihydropyridines, improved aqueous solutions thereof, and processes of manufacturing the solutions” (Navinta LLC, priority 2006, dated 2009).
Entries after “also recorded” stand apart in the source; their conditions may differ. Counter-ions that a name gives are not always drawn.

Legend:
[1] = hydrochloride

pKa (first of three pKa values) | pKa (second of three pKa values) | SMILES | solubility in water [1]
– | – | COC(=O)C1=C(C)NC(C)=C(C(=O)OCCN(C)Cc2ccccc2)C1c1cccc([N+](=O)[O-])c1 (stereo not drawn) [nicardipine hydrochloride] | poorly soluble in water; also recorded: very poorly soluble in water
2.18 | 9.09 | N=C(N)NCCC[C@H](N)C(=O)O [L-arginine] | –
